Measurements as given in patent US20240287076A1, “COMPOUNDS FOR TARGETING DEGRADATION OF BRUTON'S TYROSINE KINASE” (BIOGEN MA INC., priority 2021, published 2024).

Target: T1, BTK (Homo sapiens, UniProt Q06187)
T1 construct: The GM01501.3 cell line endogenously expresses BTK with a HiBiT fusion tag via CRISPR knock-in at its C-terminal region; endogenous in cells; host or cells: GM01501.3 (GM01501 cells engineered by CRISPR knock-in of HiBiT at the BTK locus)
Experiment: BTK degradation assay using the HiBiT Method (Nano-Glo HiBiT Lytic Assay, GM01501.3 cells)
Type: cell-based
Details: HiBiT Degradation on GM01501.3 BTK @ 6 hours
Outline: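 Degradation read-out: HiBiT luminescence after lytic reagent addition, giving DC50. Compounds dosed from 10 μM in 11 half-log steps (duplicate) onto GM01501.3 cells, whose endogenous BTK carries a C-terminal HiBiT knock-in tag; 6 h exposure, 37 °C, 5% CO2.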

T1 sequence (Q06187 whole entry, the tested form may be a part): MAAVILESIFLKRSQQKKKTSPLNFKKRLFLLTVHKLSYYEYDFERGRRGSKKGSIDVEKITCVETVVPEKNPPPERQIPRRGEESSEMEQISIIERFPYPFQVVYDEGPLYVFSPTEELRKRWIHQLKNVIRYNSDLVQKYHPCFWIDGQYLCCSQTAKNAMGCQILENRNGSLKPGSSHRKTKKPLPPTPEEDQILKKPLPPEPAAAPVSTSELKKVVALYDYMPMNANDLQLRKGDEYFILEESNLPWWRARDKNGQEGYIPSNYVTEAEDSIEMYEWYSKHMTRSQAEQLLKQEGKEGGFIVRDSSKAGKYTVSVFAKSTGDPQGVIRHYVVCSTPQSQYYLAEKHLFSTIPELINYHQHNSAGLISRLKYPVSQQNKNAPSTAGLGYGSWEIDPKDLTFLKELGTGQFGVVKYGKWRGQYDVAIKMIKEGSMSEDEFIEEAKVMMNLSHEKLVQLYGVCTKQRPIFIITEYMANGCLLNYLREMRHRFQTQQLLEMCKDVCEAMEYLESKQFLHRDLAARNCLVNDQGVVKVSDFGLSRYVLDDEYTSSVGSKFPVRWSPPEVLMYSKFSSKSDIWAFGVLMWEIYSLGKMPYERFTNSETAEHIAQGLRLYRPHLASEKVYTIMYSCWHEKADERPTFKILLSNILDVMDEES

DC50, < 100 nM:
Cc1cc(-c2ncnn3cc(CCN4CCC(c5ccc(C6CCC(=O)NC6=O)cc5)C(F)(F)C4)cc23)ccc1CNC(=O)c1noc(C(C)(C)C)n1 (centres unmarked) [Example 119, 5-tert-butyl-N-[[4-[6-[2-[4-[4-(2,6-dioxo-3-piperidyl)phenyl]-3,3-difluoro-1-piperidyl]ethyl]pyrrolo[2,1-f][1,2,4]triazin-4-yl]-2-methyl-phenyl]methyl]-1,2,4-oxadiazole-3-carboxamide]
CC(C)(C)c1nc(C(=O)NCc2ccc(-c3ncnn4cc(CCN5CCC(c6ccc(NC7CCC(=O)NC7=O)cc6)CC5)cc34)cc2F)no1 (centres unmarked) [Example 120, 5-tert-butyl-N-[[4-[6-[2-[4-[4-[(2,6-dioxo-3-piperidyl)amino]phenyl]-1-piperidyl]ethyl]pyrrolo[2,1-f][1,2,4]triazin-4-yl]-2-fluoro-phenyl]methyl]-1,2,4-oxadiazole-3-carboxamide]
Cc1cc(-c2ncnn3cc(N4CCN(C(=O)CCCCC5CCN(C(=O)c6ccc(OC7CCC(=O)NC7=O)cc6)CC5)CC4)cc23)ccc1CNC(=O)c1noc(C(C)(C)C)n1 (centres unmarked) [Example 182, 5-(tert-butyl)-N-(4-(6-(4-(5-(1-(4-((2,6-dioxopiperidin-3-yl)oxy)benzoyl)piperidin-4-yl)pentanoyl)piperazin-1-yl)pyrrolo[2,1-f][1,2,4]triazin-4-yl)-2-methylbenzyl)-1,2,4-oxadiazole-3-carboxamide]
Cc1cc(-c2ncnn3cc(-c4ccc(CN5CCC(c6ccc(NC7CCC(=O)NC7=O)nc6)CC5)cc4)cc23)ccc1CNC(=O)c1noc(C(C)(C)C)n1 (centres unmarked) [Example 13, 5-tert-butyl-N-[[4-[6-[4-[[4-[6-[(2,6-dioxo-3-piperidyl)amino]-3-pyridyl]-1-piperidyl]methyl]phenyl]pyrrolo[2,1-f][1,2,4]triazin-4-yl]-2-methyl-phenyl]methyl]-1,2,4-oxadiazole-3-carboxamide]
Cc1cc(-c2ccnc3[nH]c(-c4ccc(CN5CCC(c6ccc(NC7CCC(=O)NC7=O)cc6)CC5)cc4)cc23)ccc1CNC(=O)c1noc(C(C)(C)C)n1 (centres unmarked) [Example 161, 5-tert-butyl-N-[[4-[2-[4-[[4-[4-[(2,6-dioxo-3-piperidyl)amino]phenyl]-1-piperidyl]methyl]phenyl]-1H-pyrrolo[2,3-b]pyridin-4-yl]-2-methyl-phenyl]methyl]-1,2,4-oxadiazole-3-carboxamide]
Cn1nc(N2CCC(=O)NC2=O)c2ccc(C3CCN(CCOc4ccc(-c5cc6c(-c7ccc(CNC(=O)c8noc(C(C)(C)C)n8)c(F)c7)ncnn6c5)cc4)CC3)cc21 [Example 109]
Cc1cc(-c2ncnn3cc(CCN4CCC(c5ccc6c(N7CCC(=O)NC7=O)cnn6c5)CC4)cc23)ccc1CNC(=O)c1noc(C(C)(C)C)n1 [Example 270, 5-(tert-butyl)-N-(4-(6-(2-(4-(3-(2,4-dioxotetrahydropyrimidin-1(2H)-yl)pyrazolo[1,5-a]pyridin-6-yl)piperidin-1-yl)ethyl)pyrrolo[2,1-f][1,2,4]triazin-4-yl)-2-methylbenzyl)-1,2,4-oxadiazole-3-carboxamide]
Cc1cc(-c2ncnn3cc(CCN4CCC(c5ccc6c(C7CCC(=O)NC7=O)nn(C)c6c5)CC4)cc23)ccc1CNC(=O)c1ccn(C(C)(C)C)n1 (centres unmarked) [Example 273, 1-(tert-butyl)-N-(4-(6-(2-(4-(3-(2,6-dioxopiperidin-3-yl)-1-methyl-1H-indazol-6-yl)piperidin-1-yl)ethyl)pyrrolo[2,1-f][1,2,4]triazin-4-yl)-2-methylbenzyl)-1H-pyrazole-3-carboxamide]
Cc1cc(-c2ncnn3cc(COCCN4CCC(c5ccc(C6CCC(=O)NC6=O)cc5)CC4)cc23)ccc1CNC(=O)c1noc(C(C)(C)C)n1 (centres unmarked) [Example 144, 5-tert-butyl-N-[[4-[6-[2-[4-[4-(2,6-dioxo-3-piperidyl)phenyl]-1-piperidyl]ethoxymethyl]pyrrolo[2,1-f][1,2,4]triazin-4-yl]-2-methyl-phenyl]methyl]-1,2,4-oxadiazole-3-carboxamide]
Cc1cc(-c2ncnn3cc(-c4ccc5c(c4)CCN(CCCc4ccc(NC6CCC(=O)NC6=O)cc4)C5)cc23)ccc1CNC(=O)c1noc(C(C)(C)C)n1 (centres unmarked) [Example 58, 5-tert-butyl-N-[[4-[6-[2-[3-[4-[(2,6-dioxo-3-piperidyl)amino]phenyl]propyl]-3,4-dihydro-1H-isoquinolin-6-yl]pyrrolo[2,1-f][1,2,4]triazin-4-yl]-2-methyl-phenyl]methyl]-1,2,4-oxadiazole-3-carboxamide]
Cc1cc(-c2ncnn3cc(CCN4CCN(c5ncc(NC6CCC(=O)NC6=O)cc5F)CC4)cc23)ccc1CNC(=O)c1noc(C(C)(C)C)n1 (centres unmarked) [Example 263, 5-(tert-butyl)-N-(4-(6-(2-(4-(5-((2,6-dioxopiperidin-3-yl)amino)-3-fluoropyridin-2-yl)piperazin-1-yl)ethyl)pyrrolo[2,1-f][1,2,4]triazin-4-yl)-2-methylbenzyl)-1,2,4-oxadiazole-3-carboxamide]
Cc1cc(-c2ncnn3cc(CCN4CCC(c5ccc(NC6CCC(=O)NC6=O)cn5)CC4)cc23)ccc1CNC(=O)c1noc(C(C)(C)C)n1 (centres unmarked) [Example 252, 5-(tert-butyl)-N-(4-(6-(2-(4-(5-((2,6-dioxopiperidin-3-yl)amino)pyridin-2-yl)piperidin-1-yl)ethyl)pyrrolo[2,1-f][1,2,4]triazin-4-yl)-2-methylbenzyl)-1,2,4-oxadiazole-3-carboxamide]
Cc1cc(-c2ncnn3cc(-c4ccc(CN5CCC(c6cnc(NC7CCC(=O)NC7=O)cn6)CC5)cc4)cc23)ccc1CNC(=O)c1noc(C(C)(C)C)n1 (centres unmarked) [Example 12, 5-tert-butyl-N-[[4-[6-[4-[[4-[5-[(2,6-dioxo-3-piperidyl)amino]pyrazin-2-yl]-1-piperidyl]methyl]phenyl]pyrrolo[2,1-f][1,2,4]triazin-4-yl]-2-methyl-phenyl]methyl]-1,2,4-oxadiazole-3-carboxamide]
Cc1cc(-c2ncnn3cc(-c4ccc(CN5CCN(c6ccc(NC7CCC(=O)NC7=O)cc6)CC5)cc4)cc23)ccc1CNC(=O)c1noc(C(C)(C)C)n1 (centres unmarked) [Example 29, 5-tert-butyl-N-[[4-[6-[4-[[4-[4-[(2,6-dioxo-3-piperidyl)amino]phenyl]piperazin-1-yl]methyl]phenyl]pyrrolo[2,1-f][1,2,4]triazin-4-yl]-2-methyl-phenyl]methyl]-1,2,4-oxadiazole-3-carboxamide]
Cc1cc(-c2ncnn3cc(-c4ccc(CN5CCC(c6ccc(NC7CCC(=O)NC7=O)cn6)CC5)cc4)cc23)ccc1CNC(=O)c1noc(C(C)(C)C)n1 (centres unmarked) [Example 20, 5-tert-butyl-N-[[4-[6-[4-[[4-[5-[(2,6-dioxo-3-piperidyl)amino]-2-pyridyl]-1-piperidyl]methyl]phenyl]pyrrolo[2,1-f][1,2,4]triazin-4-yl]-2-methyl-phenyl]methyl]-1,2,4-oxadiazole-3-carboxamide]
CC(C)(C)c1nc(C(=O)NCc2ccc(-c3ncnn4cc(-c5ccc(CN6CCC(c7ccc(NC8CCC(=O)NC8=O)cc7)CC6)cc5)cc34)cc2Cl)no1 (centres unmarked) [Example 48, 5-tert-butyl-N-[[2-chloro-4-[6-[4-[[4-[4-[(2,6-dioxo-3-piperidyl)amino]phenyl]-1-piperidyl]methyl]phenyl]pyrrolo[2,1-f][1,2,4]triazin-4-yl]phenyl]methyl]-1,2,4-oxadiazole-3-carboxamide]
Cc1cc(-c2ncnn3cc(CCN4CCC(c5ccc6c(N7CCC(=O)NC7=O)nn(C)c6c5F)CC4)cc23)ccc1CNC(=O)c1noc(C(C)(C)C)n1 [Example 259, 5-(tert-butyl)-N-(4-(6-(2-(4-(3-(2,4-dioxotetrahydropyrimidin-1(2H)-yl)-7-fluoro-1-methyl-1H-indazol-6-yl)piperidin-1-yl)ethyl)pyrrolo[2,1-f][1,2,4]triazin-4-yl)-2-methylbenzyl)-1,2,4-oxadiazole-3-carboxamide]
Cn1nc(N2CCC(=O)NC2=O)c2ccc(C3CCN(CCCCc4cc5c(-c6ccc7c(c6)OCCCC7NC(=O)c6noc(C(C)(C)C)n6)ncnn5c4)CC3)cc21 (centres unmarked) [Example 290, 5-(tert-butyl)-N-(8-(6-(4-(4-(3-(2,4-dioxotetrahydropyrimidin-1(2H)-yl)-1-methyl-1H-indazol-6-yl)piperidin-1-yl)butyl)pyrrolo[2,1-f][1,2,4]triazin-4-yl)-2,3,4,5-tetrahydrobenzo[b]oxepin-5-yl)-1,2,4-oxadiazole-3-carboxamide]
Cc1cc(-c2ncnn3cc(-c4ccc(CN5CCC(c6ccc(NC7CCC(=O)NC7=O)cc6)CC5)cc4)cc23)ccc1CN1CCN(CC(C)(C)C)CC1=O (centres unmarked) [Example 103, 3-[4-[1-[[4-[4-[4-[[4-(2,2-dimethylpropyl)-2-oxo-piperazin-1-yl]methyl]-3-methyl-phenyl]pyrrolo[2,1-f][1,2,4]triazin-6-yl]phenyl]methyl]-4-piperidyl]anilino]piperidine-2,6-dione]
Cc1cc(-c2ncnn3cc(CCCCN4CCC(c5ccc6c(N7CCC(=O)NC7=O)nn(C)c6c5)C(F)(F)C4)cc23)ccc1CNC(=O)c1noc(C(C)(C)C)n1 (centres unmarked) [Example 283, 5-(tert-butyl)-N-(4-(6-(4-(4-(3-(2,4-dioxotetrahydropyrimidin-1(2H)-yl)-1-methyl-1H-indazol-6-yl)-3,3-difluoropiperidin-1-yl)butyl)pyrrolo[2,1-f][1,2,4]triazin-4-yl)-2-methylbenzyl)-1,2,4-oxadiazole-3-carboxamide]
